# Source: US20190374601A1, “METHODS FOR TREATING FUNGAL INFECTIONS” (priority 2017, published 2019)
# Values joined by “and” are separate entries in the source; they are usually repeats but may differ in a detail not shown here. Equal entries are not always repeated. Starred links: 1 amine or outer side, 2 acyl side, 3 side chain; linkers in the order of their positions; H or OH if unused. Positions of bridges follow the written chain, without caps; N, C: chain ends. Non-standard residues stand in square brackets, D forms with d. Residues, ends and D or L forms follow the SMILES beside them. *: point of attachment. Orn(4R-OH,5R-OCH2CH2NMe3+) = C[N+](C)(C)CCO[C@@H](N[*:3])[C@H](O)C[C@H](N[*:1])C(=O)[*:2]; pTerphenylCO(4''-OnC5H11) = CCCCCOc1ccc(-c2ccc(-c3ccc(C(=O)*)cc3)cc2)cc1; hTyr(3S-OH,4S-OH) = N[C@H](C(=O)O)[C@H](O)[C@@H](O)c1ccc(O)cc1; Pro(3S-OH,4S-Me) = C[C@H]1CN[C@H](C(=O)O)[C@H]1O; Hyp = O=C(O)[C@@H]1C[C@@H](O)CN1
# What was measured:
# Type in all cases: in vivo
# [1] = tested on: T. mentagrophytes ATCC 24953; assay: Hair root invasion test (mycological evaluation), T. mentagrophytes dermatophytosis guinea pig model, Example 1; settings: evaluated study day 10, relative to vehicle control
# Procedure: A request was made to the Animal Resource Center (ARC) at Case Western Reserve University to order the required number of male albino Harlan-Sprague-Dawley Guinea-Pigs (San Diego, Calif.) with a body weight of 450-500 g. Animals were allowed to acclimate for a minimum of 5 days prior to use. Environmental controls for the animal room were set to maintain a temperature of 16 to 22° C., a relative humidity of 30-70%, and a 12:12 light-dark cycle.
# T. mentagrophytes ATCC 24953 was used as the infecting fungus. This strain was selected because it can cause skin infection and results in inflammatory reaction.
# T. mentagrophytes (from frozen stock) was sub-cultured on Potato Dextrose Agar plates and incubated at 30° C. for 5-7 days. The colonies were scraped from the plates using sterile normal saline (NaCl 0.85%) solution. After washing for three times with sterile saline the conidia were re-suspended in the same solution. Ten-fold dilutions of conidia suspension were prepared and counted using a hemacytometer. Working suspension of conidia was prepared at a final concentration of 1×10^7 Colony Forming Units (CFUs)/100 μL in normal saline.
# Each animal was anesthetized with a cocktail of xylazine and ketamine: 0.2 mL intramuscularly. Using an electric shaver, hair was clipped on left side of the guinea pig back. A closer shave was done with a disposable razor. Using a stencil, a square of 2.5 cm×2.5 cm was marked. The marked skin area was abraded with sterile fine grit sandpaper. A cell suspension containing 1×10^7 conidia in 100 μL was applied and rubbed thoroughly on the abraded skin.
# Beginning two hours post inoculation, animals were treated subcutaneously (SQ) for CD101 and orally (PO) terbinafine once daily for a period of nine days, or once a week on days 1 and 8.
# Study Day 1: Infected the animals with T. mentagrophytes and begin treatments.
# Study Day 9 (treatment day 9): End treatments.
# Study Day 10: Clinical evaluation of the four quadrants in the marked area was done. Hair samples were obtained from each quadrant (10 per quadrant). Hairs were planted in Potato Dextrose Agar, and incubated for 48 h for mycological evaluation. Procedures for clinical and mycological evaluations are described below.
# CD101 was administered SQ in 0.3 mL, while the terbinafine was given orally in 0.3 mL. Vehicle treated group was also included.
# Hair samples were removed with a sterile forceps from four quadrants. Ten hair samples from each quadrant were inoculated onto the corresponding quadrant on the Potato Dextrose agar plate and incubated at 30° C. for 2 days. The fungal growth at the hair root was examined under a stereomicroscope. The effectiveness of a compound in reducing the number of mycologically positive hair sample per treated group is expressed as percentage relative to the vehicle control group of animals using the following formula:
# where, T=Positive hair in the test group, K=Positive hair in the Untreated control.
# [2] = Tissue concentration of subcutaneously injected CD101 in cynomolgus monkeys; settings: for CD101 Concentration: individual animals, at necropsy; for Mean Concentration: mean of males and females
# Procedure: In this study, the tissue concentration of subcutaneously injected CD101 was evaluated in cynomolgus monkeys.
# (§1) Dose levels were 30, 60, and 120 mg/kg/dose for Groups 2, 3, and 4, respectively. […] The dose volumes were 1.2, 0.3, 0.6, and 1.2 mL/kg spread evenly over 4, 1, 2, and 4 dose sites for Groups 1-4, respectively, on each day of dosing. The control and 120 mg/kg/dose groups each consisted of 5 males and 5 females, and the 30 and 60 mg/kg/dose groups each consisted of 3 males and 3 females.
# (§2) The animals were observed twice daily for mortality and moribundity. Clinical examinations were performed once daily for at least 6 consecutive days, including the day of randomization, prior to randomization, prior to dosing, 1-2 hours postdosing, once daily on nondosing days, and once daily during the recovery period. Detailed physical examinations were performed at least weekly during the acclimation period until randomization, on the day of randomization, weekly (±2 days) during the study period, and on the day of the scheduled necropsies. Injection site (IS) observations were performed prior to dosing (dose sites that were utilized on that day of dosing), 1-2 hours postdosing (dose sites that were utilized on that day of dosing), once daily on nondosing days (dose sites that had been previously been utilized), and twice weekly during the recovery period. Individual body weights were recorded weekly (±2 days). Individual body weights were collected at least weekly during the acclimation period until randomization, on the day of randomization, Study Day 0 (prior to dosing), weekly (2±days) during the study period, on the day prior to the day of the scheduled necropsies (nonfasted) and on the day of the scheduled necropsies (fasted). Clinical pathology parameters (hematology, coagulation, serum chemistry, and urinalysis) were analyzed during acclimation prior to randomization (Study Day −15), and on the day of the primary (Study Day 17) and recovery (Study Day 45) necropsies. Blood samples for toxicokinetic evaluation were collected from all animals/sex/group/time point prior to dose administration and at approximately 1, 2, 4, 8, 24, 48, and 72 hours after dose administration on Study Days 0 and 12. Complete necropsies were performed on all animals, and selected organs were weighed at the scheduled necropsies. Selected tissues were examined microscopically from all animals. Fingernail, toenail, nail bed, and abdominal skin samples were collected from all animals at the scheduled necropsies for bioanalytical analysis.
# [3] = Toxicokinetic evaluation (plasma) after subcutaneous injection in cynomolgus monkeys
# Procedure: as §1, §2
compound,measurement,setting,value
"CCCCCOc1ccc(-c2ccc(-c3ccc(C(=O)N[C@H]4C[C@@H](O)[C@@H](OCC[N+](C)(C)C)NC(=O)[C@@H]5[C@@H](O)[C@@H](C)CN5C(=O)[C@H]([C@@H](C)O)NC(=O)[C@H]([C@H](O)[C@@H](O)c5ccc(O)cc5)NC(=O)[C@@H]5C[C@@H](O)CN5C(=O)[C@H]([C@@H](C)O)NC4=O)cc3)cc2)cc1 [CD101] ({pTerphenylCO(4''-OnC5H11)}-[Orn(4R-OH,5R-OCH2CH2NMe3+)]T[Hyp][hTyr(3S-OH,4S-OH)]T[Pro(3S-OH,4S-Me)]; lactam 1-C)",Percent Efficacy Mycological,[1]; 35 mg/kg SQ daily for nine days,88.0%
same,Percent Efficacy Mycological,[1]; 35 mg/kg SQ once a week (days 1 and 8),85.5%
same,CD101 Concentration,"[2]; Fingernail bed, 30 mg/kg/dose SC once every 3 days (5 doses), 30 mg/kg",168 µg/g and 160 µg/g and 92.5 µg/g and 75.9 µg/g and 71.9 µg/g and 48.6 µg/g
same,Mean Concentration,"[2]; Fingernail bed, 30 mg/kg/dose SC",103 µg/g
same,CD101 Concentration,"[2]; Fingernail bed, 60 mg/kg/dose SC once every 3 days (5 doses), 60 mg/kg",218 µg/g and 96.7 µg/g and 251 µg/g and 159 µg/g and 175 µg/g and 184 µg/g
same,Mean Concentration,"[2]; Fingernail bed, 60 mg/kg/dose SC",181 µg/g
same,CD101 Concentration,"[2]; Fingernail bed, 120 mg/kg/dose SC once every 3 days (5 doses), 120 mg/kg",1351 µg/g and 404 µg/g and 67.1 µg/g and 129 µg/g and 346 µg/g and 332 µg/g and 330 µg/g and 147 µg/g and 283 µg/g and 114 µg/g
same,Mean Concentration,"[2]; Fingernail bed, 120 mg/kg/dose SC",350 µg/g
same,CD101 Concentration,"[2]; Fingernail, 30 mg/kg/dose SC once every 3 days (5 doses), 30 mg/kg",106 µg/g and 118 µg/g and 63.6 µg/g and 60.8 µg/g and 74.2 µg/g
same,CD101 Concentration,"[2]; Fingernail, 60 mg/kg/dose SC once every 3 days (5 doses), 60 mg/kg",194 µg/g and 108 µg/g and 527 µg/g and 171 µg/g and 155 µg/g and 175 µg/g
same,Mean Concentration,"[2]; Fingernail, 60 mg/kg/dose SC",222 µg/g
same,CD101 Concentration,"[2]; Fingernail, 120 mg/kg/dose SC once every 3 days (5 doses), 120 mg/kg",266 µg/g and 264 µg/g and 445 µg/g and 469 µg/g and 239 µg/g and 244 µg/g and 269 µg/g and 459 µg/g and 348 µg/g and 339 µg/g
same,Mean Concentration,"[2]; Fingernail, 120 mg/kg/dose SC",334 µg/g
same,CD101 Concentration,"[2]; Skin, 30 mg/kg/dose SC once every 3 days (5 doses), 30 mg/kg",38.2 µg/g and 44.4 µg/g and 43.7 µg/g
same,CD101 Concentration,"[2]; Skin, 60 mg/kg/dose SC once every 3 days (5 doses), 60 mg/kg",108 µg/g and 66.2 µg/g and 99.6 µg/g and 48.8 µg/g and 81.7 µg/g and 82.0 µg/g
same,Mean Concentration,"[2]; Skin, 60 mg/kg/dose SC",81.0 µg/g
same,CD101 Concentration,"[2]; Skin, 120 mg/kg/dose SC once every 3 days (5 doses), 120 mg/kg",133 µg/g and 132 µg/g and 32.0 µg/g and 12.2 µg/g and 141 µg/g and 151 µg/g and 77.6 µg/g and 43.1 µg/g and 135 µg/g and 15.9 µg/g
same,Mean Concentration,"[2]; Skin, 120 mg/kg/dose SC",87.3 µg/g
same,CD101 Concentration,"[2]; Toenail bed, 30 mg/kg/dose SC once every 3 days (5 doses), 30 mg/kg",76.9 µg/g and 102 µg/g and 50.5 µg/g and 86.1 µg/g and 82.9 µg/g
same,Mean Concentration,"[2]; Toenail bed, 30 mg/kg/dose SC",74.7 µg/g
same,CD101 Concentration,"[2]; Toenail, 30 mg/kg/dose SC once every 3 days (5 doses), 30 mg/kg",76.0 µg/g and 74.2 µg/g and 126 µg/g and 58.8 µg/g and 42.8 µg/g and 38.3 µg/g
same,Mean Concentration,"[2]; Toenail, 30 mg/kg/dose SC",69.3 µg/g
same,CD101 Concentration,"[2]; Toenail, 60 mg/kg/dose SC once every 3 days (5 doses), 60 mg/kg",265 µg/g and 86.7 µg/g and 198 µg/g and 106 µg/g and 160 µg/g and 79.2 µg/g
same,Mean Concentration,"[2]; Toenail, 60 mg/kg/dose SC",149 µg/g
same,CD101 Concentration,"[2]; Toenail, 120 mg/kg/dose SC once every 3 days (5 doses), 120 mg/kg",268 µg/g and 182 µg/g and 360 µg/g and 162 µg/g and 416 µg/g and 173 µg/g and 206 µg/g and 318 µg/g and 190 µg/g and 193 µg/g
same,Mean Concentration,"[2]; Toenail, 120 mg/kg/dose SC",247 µg/g
same,combined accumulation ratio (plasma),"[3]; 30 mg/kg/dose SC once every 3 days, males and females combined",3.18
same,combined accumulation ratio (plasma),"[3]; 60 mg/kg/dose SC once every 3 days, males and females combined",2.70
same,combined accumulation ratio (plasma),"[3]; 120 mg/kg/dose SC once every 3 days, males and females combined",2.67
same,time by which concentrations reached maximum or near maximum observed values,"[3]; Study Day 0, postdose, SC",≤ 8 h
same,increase of combined exposure (AUC0-72 and Cmax) over a 4-fold dose change,"[3]; Study Day 12, 30 to 120 mg/kg/dose SC",approximately 3 fold
same,predose concentration on Study Day 12 relative to Study Day 0 Cmax,"[3]; Study Day 12 predose, SC once every 3 days",approximately 2 fold
same,Cmax,"[3]; both sexes, cynomolgus monkey, plasma, range across the 30 to 120 mg/kg groups, males and females combined, SC",21000 to 65100 ng/mL
same,AUC(0-t),"[3]; both sexes, cynomolgus monkey, plasma, range across the 30 to 120 mg/kg groups, males and females combined, SC, read-out: AUC0-72",1360 to 4320 µg·h/mL
